Source: patent US20250034134A1, “15-PGDH INHIBITOR AND USE THEREOF” (Wuhan Humanwell Innovative Drug Research and Development …, priority 2021, published 2025)

Legend:
15-PGDH = 15-PGDH (Homo sapiens (Human), UniProt P15428); assay: Inhibition test of compounds on 15-PGDH enzyme; format: biochemical
Description: 15-PGDH (R&D Systems, Cat. No.: 5660-DH-010) was prepared to twice the final concentration, i.e., 30 nM, using Assay Buffer (50 mM Tris-HCl, pH 7.5, 0.01vol % Tween 20). The obtained mixture was then added to a 384-well white plate (Cisbio Bioassays, Cat. No. 66PL384025) at 8 μL/well. Negative control wells (with Assay Buffer only and without enzyme) were set. The compound was then prepared to 4 times the final concentration using Assay Buffer, i.e., diluted 3-fold to 10 concentrations starting from 4000 nM. The obtained mixture was added to the above white plate at 4 μL/well, mixed well, centrifuged at 1000 rpm for 1 minute, and incubated at 25° C. for 10 minutes. Both positive control wells (with 15-PGDH only) and negative control wells (without 15-PGDH) were set. A mixture of NAD^+(Select, Cat. No. S2518) and PGE2 (R&D Systems, Cat. No.: 2296/10) was then prepared using Assay Buffer. NAD^+ and PGE2 were prepared to four times their final concentrations, i.e., 2 mM and 0.12 mM, respectively, using Assay Buffer. The obtained mixture was then added to the above white plate at 4 μL/well, mixed well, centrifuged at 1000 rpm for 1 minute, and incubated at 25° C. for 30 minutes for the reaction. The fluorescence was detected at an excitation wavelength of 340 nm and an emission wavelength of 485 nm using instrument TECAN SPARK 20M. The IC50 value was calculated using four-parameter fitting with GraphPad Prism 8.0.

A549 cells = assay: Effect of compounds on PGE2 levels in A549 cell supernatant; format: cell-based; conditions: 20 nM compound, about 12 hours, after IL-10 stimulation; ELISA
Description: A549 cells (Procell, Wuhan) were cultured in F12K+10% FBS. The cells with good status in log phase were selected for the experiment, digested, counted, and inoculated into a 24-well plate at 8000 cells per well. The cells were cultured in a 37° C., 5% CO2 incubator overnight. After adherence, the cells were transferred to a culture medium containing 0.5% FBS and cultured for about 10 hours. IL-10 was added to each well (final concentration of 20 ng/mL, 1 mL per well), and a control group (without IL-10) was set up. After stimulation with IL-10 for about 24 hours, the cell culture medium of each well was aspirated and discarded, and the wells were gently washed with fresh culture medium containing 0.5% FBS. 400 μL of culture medium containing the compound of different concentrations (20 nM and 2500 nM) was added to each well and cultured for about 12 hours. The supernatant was collected and PGE2 was detected using ELISA kit (R&D Systems, Cat. No.: KGE004B).

Sequence of 15-PGDH (P15428 whole entry): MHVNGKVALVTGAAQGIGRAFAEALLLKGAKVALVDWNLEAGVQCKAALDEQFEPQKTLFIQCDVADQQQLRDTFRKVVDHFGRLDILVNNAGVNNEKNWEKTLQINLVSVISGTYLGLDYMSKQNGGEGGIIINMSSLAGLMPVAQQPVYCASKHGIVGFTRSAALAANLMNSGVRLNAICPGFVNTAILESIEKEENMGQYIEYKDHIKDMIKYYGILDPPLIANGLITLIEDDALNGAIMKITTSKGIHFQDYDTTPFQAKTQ

Row | SMILES | IC50 (15-PGDH) [nM] | Fold increase of PGE2 in A549 cell supernatant (A549 cells)
1 | [2H]C([2H])([2H])n1nc2cc(N3CC4CC4c4cc(C(=O)N5CCC(F)(F)CC5)cnc43)ccn2c1=O (single isomer, unassigned) [Compound I-25A] | 15.8 | 
2 | [2H]C([2H])([2H])n1nc2cc(N3CC4CC4c4cc(C(=O)N5CCC(F)(F)CC5)cnc43)ccn2c1=O (centres unmarked) [Compound I-25, 7-(6-(4,4-difluoropiperidine-1-carbonyl)-1,1a,2,7b-tetrahydro-3H-cyclopropa[c][1,8]naphthyridin-3-yl)-2-(methyl-d3)-[1,2,4]triazolo[4,3-a]pyridin-3(2H)-one] | 2.59 | 
3 | Cn1ccc2cc(N3CC4CC4c4cc(C(=O)N5CCC(F)(F)CC5)cnc43)ccc2c1=O (single isomer, unassigned) [Compound I-12A] | 1.52 | 
4 | CCn1nc2cc(N3CC4CC4c4cc(C(=O)N5CCC(F)(F)CC5)cnc43)ccn2c1=O (centres unmarked) [Compound I-32, 7-(6-(4,4-difluoropiperidine-1-carbonyl)-1,1a,2,7b-tetrahydro-3H-cyclopropa[c][1,8]naphthyridin-3-yl)-2-ethyl-[1,2,4]triazolo[4,3-a]pyridin-3(2H)-one] | 6.3 | 3.7
5 | [2H]C([2H])([2H])n1nc2cc(N3CC4CC4c4cc(C(=O)N5CCC(F)(F)CC5)cnc43)ccn2c1=O (single isomer, unassigned) [Compound I-25B] | 3.78 | 
6 | Cn1nc2cc(N3CC4CC4c4cc(C(=O)N5CC6CC6C5)cnc43)ccn2c1=O (centres unmarked) [Compound I-29, 7-(6-(3-azabicyclo[3.1.0]hexane-3-carbonyl)-1,1a,2,7b-tetrahydro-3H-cyclopropa[c][1,8]naphthyridin-3-yl)-2-methyl-[1,2,4]triazolo[4,3-a]pyridin-3(2H)-one] | 5.3 | 2.3
7 | Cn1ccc2cc(N3CC4CC4c4cc(C(=O)N5CCC(F)(F)CC5)cnc43)ccc2c1=O (single isomer, unassigned) [Compound I-12B] | 7.42 | 
8 | Cn1nc2cc(N3CC4CC4c4cc(C(=O)N5CCC[C@@H](CF)C5)cnc43)ccn2c1=O (stereo partly drawn) [Compound I-30, 7-(6-((R)-3-(fluoromethyl)piperidine-1-carbonyl)-1,1a,2,7b-tetrahydro-3H-cyclopropa[c][1,8]naphthyridin-3-yl)-2-methyl-[1,2,4]triazolo[4,3-a]pyridin-3(2H)-one] | 6 | 2.72
9 | Cn1ncc2cc(N3CC4CC4c4cc(C(=O)N5CCC(F)(F)CC5)ccc43)cnc2c1=O (centres unmarked) [Compound I-14, 3-(6-(4,4-difluoropiperidine-1-carbonyl)-1,1a,2,7b-tetrahydro-3H-cyclopropa[c]quinolin-3-yl)-7-methylpyrido[2,3-d]pyridazin-8(7H)-one] | 8.6 | 2.3
10 | CN1Cc2cc(N3CC4CC4c4cc(C(=O)N5CCC(F)(F)CC5)cnc43)ncc2C1=O (centres unmarked) [Compound I-18, 6-(6-(4,4-difluoropiperidine-1-carbonyl)-1,1a,2,7b-tetrahydro-3H-cyclopropa[c][1,8]naphthyridin-3-yl)-2-methyl-1,2-dihydro-3H-pyrrolo[3,4-c]pyridin-3-one] | 20 | 
11 | Cn1nc2cc(N3CC4CC4c4cc(C(=O)N5CCOCC5)cnc43)ccn2c1=O (centres unmarked) [Compound I-22, 2-methyl-7-(6-(morpholine-4-carbonyl)-1,1a,2,7b-tetrahydro-3H-cyclopropa[c][1,8]naphthyridin-3-yl)-[1,2,4]triazolo[4,3-a]pyridin-3(2H)-one] | 10.2 | 
12 | Cn1nc2cc(N3CC4CC4c4cc(C(=O)N5CCCC(C(F)(F)F)C5)cnc43)ccn2c1=O (centres unmarked) [Compound I-26, 2-methyl-7-(6-(3-(trifluoromethyl)piperidine-1-carbonyl)-1,1a,2,7b-tetrahydro-3H-cyclopropa[c] [1,8]naphthyridin-3-yl)-[1,2,4]triazolo[4,3-a]pyridin-3(2H)-one] | 9.9 | 4.82
13 | Cn1cnc2cc(N3CC4CC4c4cc(C(=O)N5CCC(F)(F)CC5)ccc43)cnc2c1=O (centres unmarked) [Compound I-15, 7-(6-(4,4-difluoropiperidine-1-carbonyl)-1,1a,2,7b-tetrahydro-3H-cyclopropa[c]quinolin-3-yl)-3-methylpyrido[3,2-d]pyrimidin-4(3H)-one] | 5.7 | 3.7
14 | Cn1nc2cc(N3CC4CC4c4cc(C(=O)N5CC(C)(F)C5)cnc43)ccn2c1=O (centres unmarked) [Compound I-20, 7-(6-(3-fluoro-3-methylazetidine-1-carbonyl)-1a,2-dihydro-1H-cyclopropa[c][1,8]naphthyridin-3(7bH)-yl)-2-methyl-[1,2,4]triazolo[4,3-a]pyridin-3(2H)-one] | 2.83 | 2.0
15 | CN1Cc2cc(N3CC4CC4c4cc(C(=O)N5CCC(F)(F)CC5)cnc43)ccc2C1=O (centres unmarked) [Compound I-1, 5-(6-(4,4-difluoropiperidine-1-carbonyl)-1,1a,2,7b-tetrahydro-3H-cyclopropa[c][1,8]naphthyridin-3-yl)-2-methylisoindolin-1-one] | 4.3 | 4.3
16 | CN1C(=O)c2ncc(N3CC4CC4c4cc(C(=O)N5CCC(F)(F)CC5)cnc43)cc2C12CC2 (centres unmarked) [Compound I-19, 3′-(6-(4,4-difluoropiperidine-1-carbonyl)-1,1a,2,7b-tetrahydro-3H-cyclopropa[c][1,8]naphthyridin-3-yl)-6′-methylspiro[cyclopropane-1,5′-pyrrolo[3,4-b]pyridin]-7′(6′H)-one] | 3.72 | 4.72
17 | Cn1nc2cc(N3CC4CC4c4cc(C(=O)N5CCC[C@H](CF)C5)cnc43)ccn2c1=O (stereo partly drawn) [Compound I-31, 7-(6-((S)-3-(fluoromethyl)piperidine-1-carbonyl)-1,1a,2,7b-tetrahydro-3H-cyclopropa[c][1,8]naphthyridin-3-yl)-2-methyl-[1,2,4]triazolo[4,3-a]pyridin-3(2H)-one] | 4.1 | 2.90
18 | N#Cc1ccc(N2CC3CC3c3cc(C(=O)N4CCC(F)(F)CC4)cnc32)cc1 (centres unmarked) [Compound I-11, 4-(6-(4,4-difluoropiperidine-1-carbonyl)-1,1a,2,7b-tetrahydro-3H-cyclopropa[c][1,8]naphthyridin-3-yl)benzonitrile] | 3.8 | 1.88
19 | Cn1nc2cc(N3CC4CC4c4cc(C(=O)N5CCCC(C(F)F)C5)cnc43)ccn2c1=O (centres unmarked) [Compound I-23, 7-(6-(3-(difluoromethyl)piperidine-1-carbonyl)-1,1a,2,7b-tetrahydro-3H-cyclopropa[c][1,8]naphthyridin-3-yl)-2-methyl-[1,2,4]triazolo[4,3-a]pyridin-3(2H)-one] | 4.26 | 2.93
20 | O=C(c1cnc2c(c1)C1CC1CN2c1ccn2cnnc2c1)N1CCC(F)(F)CC1 (centres unmarked) [Compound I-17, (3-([1,2,4]triazolo[4,3-a]pyridin-7-yl)-1a,2,3,7b-tetrahydro-1H-cyclopropa[c][1,8]naphthyridin-6-yl)(4,4-difluoropiperidin-1-yl)methanone] | 4.5 | 2.2
21 | Cn1nc2cc(N3CC4CC4c4cc(C(=O)N5CCCC(F)(F)C5)cnc43)ccn2c1=O (centres unmarked) [Compound I-24, 7-(6-(3,3-difluoropiperidine-1-carbonyl)-1,1a,2,7b-tetrahydro-3H-cyclopropa[c][1,8]naphthyridin-3-yl)-2-methyl-[1,2,4]triazolo[4,3-a]pyridin-3(2H)-one] | 4.23 | 2.95
22 | Cn1nc2cc(N3CC4CC4c4cc(C(=O)N5CCC(F)(F)C5)cnc43)ccn2c1=O (centres unmarked) [Compound I-21, 7-(6-(3,3-difluoropyrrolidine-1-carbonyl)-1,1a,2,7b-tetrahydro-3H-cyclopropa[c][1,8]naphthyridin-3-yl)-2-methyl-[1,2,4]triazolo[4,3-a]pyridin-3(2H)-one] | 4.95 | 2.3
23 | CNC(=O)c1ccc(N2CC3CC3c3cc(C(=O)N4CCC(F)(F)CC4)cnc32)cc1F (centres unmarked) [Compound I-9, 4-(6-(4,4-difluoropiperidine-1-carbonyl)-1,1a,2,7b-tetrahydro-3H-cyclopropa[c][1,8]naphthyridin-3-yl)-2-fluoro-N-methylbenzamide] | 9.51 | 
